Measurements published in patent US20240377399A1, “COMPOSITIONS AND METHODS FOR MODULATING HYDROXYLATION OF ACC2 BY PHD3” (President and Fellows of Harvard College, priority 2015, published 2024).
“Also recorded” adds a separate entry of the source.

Experiments:
low-PHD3 leukemia cells = assay: Leukemia cell viability by PI staining after 96 hr drug treatment; type: cell-based, human; conditions: 96 hr treatment, ranolazine 0-500 μM or etomoxir 0-200 μM
Experimental: (§1) Drug treatment and PI staining. Cells were treated 96 hr with a range of doses of etomoxir (Cayman Chemical) or ranolazine dihydrochloride (VWR/Selleck Chemicals) or vehicle. Fresh etomoxir was spiked in at 24, 48 and 72 hr. Fresh ranolazine was spiked in at 48 hr. Dosing schedules were determined by identifying the minimum number of times drug must be re-added to observe an effect on cell viability. Cell viability at 96 hr was determined by staining cells with 1 µg/ml propidium iodide (Sigma) in PBS and flow cytometry on the BD LSR-II analyzer.

KU812 = assay: as above; type: cell-based, human; conditions: low-PHD3 CML cell line; 96 hr treatment with etomoxir
Experimental: as §1

HepG2 cells = assay: Palmitate oxidation (FAO assay); type: cell-based, human; conditions: etomoxir 100 μM during the 2 h FAO assay; figure printed for PHD3 overexpression, etomoxir stated to achieve a similar level
Experimental: Fatty acid oxidation. For FAO assays, cells in 12 well-plates were pre-incubated with 100 µM palmitate or hexanoate and 1 mM carnitine for 4 hr in serum-free low glucose media, unless otherwise noted. Cells were then changed to 600 l media containing 1 μCi [9,10(n)-^3H]palmitic acid (GE Healthcare) or 1.8 μCi n-[5,6-^3H]hexanoic acid (American Radiolabeled Chemicals) and 1 mM carnitine for 2 hr. The medium was collected and eluted in columns packed with DOWEX 1X2-400 ion exchange resin (Sigma) to analyze the released ^3H20, formed during oxidation of [3H]palmitate. FAO in complete media indicates media including serum was used for pre-incubation and FAO analysis. Basal FAO indicates cells were not pre-incubated with fatty acids prior to FAO analysis. For all FAO experiments, counts per minute (CPM) were normalized to protein content in cell lysates.

recombinant PHD3 = recombinant PHD3 (Homo sapiens, UniProt Q9H6Z9); assay: In vitro hydroxylation assay with ACC2 peptides; type: biochemical; conditions: 12.5 nmol synthetic peptide; radioactivity-based, [14C]CO2 release
Sequence of recombinant PHD3 (Q9H6Z9 whole entry): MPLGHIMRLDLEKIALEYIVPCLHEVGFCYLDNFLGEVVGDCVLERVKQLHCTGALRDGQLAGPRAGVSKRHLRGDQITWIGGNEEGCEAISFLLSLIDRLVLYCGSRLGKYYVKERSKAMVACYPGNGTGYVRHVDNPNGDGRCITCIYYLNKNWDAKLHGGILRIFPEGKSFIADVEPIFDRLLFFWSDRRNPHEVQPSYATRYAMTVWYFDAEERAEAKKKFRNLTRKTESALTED
Experimental: In vitro hydroxylation assay. The in vitro hydroxylation assay was modified from a previously described assay based on the fact that hydroxylation by PHDs results in decarboxylation of […]-ketoglutarate to form carbon dioxide. Briefly, […] reactions were performed in glass vials sealed with rubber stoppers and parafilm wax. Reaction mixtures containing 12.5 nmol synthetic peptide (Peptide 2.0), 50 mM Tris/HCl (pH 7.8), 2 mg/ml BSA, 4200 U/ml catalase, 0.1 mM DTT, 2 mM ascorbate, 500 μM FeSO4·7H2O, 0.02 μmol [1-^14C][…]-ketoglutarate (Perkin Elmer) and 1.2 μg recombinant PHD3 were incubated at 370 for 30 min. Reactions were stopped by injection of 0.25 ml of 1 M KH2PO4 (pH 5) into vials. Vials were agitated on slow speed for 30 min at room temperature to allow capture of [^14C]CO2 onto solubilized Whatman paper positioned at the top of the vials. CPM were measured by scintillation counts on filter paper.

MEGO1 = assay: Leukemia cell viability by PI staining after 96 hr drug treatment; type: cell-based, human; conditions: high-PHD3 CML cell line, high dose of ranolazine, compared to low-PHD3 AML cells
Experimental: as §1

K562 leukemia cells = assay: as above; type: cell-based, human; conditions: high-PHD3 CML line, 96 hr treatment, ranolazine 0-500 μM or etomoxir 0-200 μM
Experimental: as §1

ACC2 = target: T1, ACC2 (Homo sapiens, UniProt O00763); assay: ACC activity assay in 293T cell lysates; type: biochemical; conditions: lysates overexpressing ACC2; citrate 2 mM
T1 construct: expressed in transfected cells; host or cells: 293T cells, whole-cell lysate (50 ug protein per reaction)
T1 sequence (O00763 whole entry): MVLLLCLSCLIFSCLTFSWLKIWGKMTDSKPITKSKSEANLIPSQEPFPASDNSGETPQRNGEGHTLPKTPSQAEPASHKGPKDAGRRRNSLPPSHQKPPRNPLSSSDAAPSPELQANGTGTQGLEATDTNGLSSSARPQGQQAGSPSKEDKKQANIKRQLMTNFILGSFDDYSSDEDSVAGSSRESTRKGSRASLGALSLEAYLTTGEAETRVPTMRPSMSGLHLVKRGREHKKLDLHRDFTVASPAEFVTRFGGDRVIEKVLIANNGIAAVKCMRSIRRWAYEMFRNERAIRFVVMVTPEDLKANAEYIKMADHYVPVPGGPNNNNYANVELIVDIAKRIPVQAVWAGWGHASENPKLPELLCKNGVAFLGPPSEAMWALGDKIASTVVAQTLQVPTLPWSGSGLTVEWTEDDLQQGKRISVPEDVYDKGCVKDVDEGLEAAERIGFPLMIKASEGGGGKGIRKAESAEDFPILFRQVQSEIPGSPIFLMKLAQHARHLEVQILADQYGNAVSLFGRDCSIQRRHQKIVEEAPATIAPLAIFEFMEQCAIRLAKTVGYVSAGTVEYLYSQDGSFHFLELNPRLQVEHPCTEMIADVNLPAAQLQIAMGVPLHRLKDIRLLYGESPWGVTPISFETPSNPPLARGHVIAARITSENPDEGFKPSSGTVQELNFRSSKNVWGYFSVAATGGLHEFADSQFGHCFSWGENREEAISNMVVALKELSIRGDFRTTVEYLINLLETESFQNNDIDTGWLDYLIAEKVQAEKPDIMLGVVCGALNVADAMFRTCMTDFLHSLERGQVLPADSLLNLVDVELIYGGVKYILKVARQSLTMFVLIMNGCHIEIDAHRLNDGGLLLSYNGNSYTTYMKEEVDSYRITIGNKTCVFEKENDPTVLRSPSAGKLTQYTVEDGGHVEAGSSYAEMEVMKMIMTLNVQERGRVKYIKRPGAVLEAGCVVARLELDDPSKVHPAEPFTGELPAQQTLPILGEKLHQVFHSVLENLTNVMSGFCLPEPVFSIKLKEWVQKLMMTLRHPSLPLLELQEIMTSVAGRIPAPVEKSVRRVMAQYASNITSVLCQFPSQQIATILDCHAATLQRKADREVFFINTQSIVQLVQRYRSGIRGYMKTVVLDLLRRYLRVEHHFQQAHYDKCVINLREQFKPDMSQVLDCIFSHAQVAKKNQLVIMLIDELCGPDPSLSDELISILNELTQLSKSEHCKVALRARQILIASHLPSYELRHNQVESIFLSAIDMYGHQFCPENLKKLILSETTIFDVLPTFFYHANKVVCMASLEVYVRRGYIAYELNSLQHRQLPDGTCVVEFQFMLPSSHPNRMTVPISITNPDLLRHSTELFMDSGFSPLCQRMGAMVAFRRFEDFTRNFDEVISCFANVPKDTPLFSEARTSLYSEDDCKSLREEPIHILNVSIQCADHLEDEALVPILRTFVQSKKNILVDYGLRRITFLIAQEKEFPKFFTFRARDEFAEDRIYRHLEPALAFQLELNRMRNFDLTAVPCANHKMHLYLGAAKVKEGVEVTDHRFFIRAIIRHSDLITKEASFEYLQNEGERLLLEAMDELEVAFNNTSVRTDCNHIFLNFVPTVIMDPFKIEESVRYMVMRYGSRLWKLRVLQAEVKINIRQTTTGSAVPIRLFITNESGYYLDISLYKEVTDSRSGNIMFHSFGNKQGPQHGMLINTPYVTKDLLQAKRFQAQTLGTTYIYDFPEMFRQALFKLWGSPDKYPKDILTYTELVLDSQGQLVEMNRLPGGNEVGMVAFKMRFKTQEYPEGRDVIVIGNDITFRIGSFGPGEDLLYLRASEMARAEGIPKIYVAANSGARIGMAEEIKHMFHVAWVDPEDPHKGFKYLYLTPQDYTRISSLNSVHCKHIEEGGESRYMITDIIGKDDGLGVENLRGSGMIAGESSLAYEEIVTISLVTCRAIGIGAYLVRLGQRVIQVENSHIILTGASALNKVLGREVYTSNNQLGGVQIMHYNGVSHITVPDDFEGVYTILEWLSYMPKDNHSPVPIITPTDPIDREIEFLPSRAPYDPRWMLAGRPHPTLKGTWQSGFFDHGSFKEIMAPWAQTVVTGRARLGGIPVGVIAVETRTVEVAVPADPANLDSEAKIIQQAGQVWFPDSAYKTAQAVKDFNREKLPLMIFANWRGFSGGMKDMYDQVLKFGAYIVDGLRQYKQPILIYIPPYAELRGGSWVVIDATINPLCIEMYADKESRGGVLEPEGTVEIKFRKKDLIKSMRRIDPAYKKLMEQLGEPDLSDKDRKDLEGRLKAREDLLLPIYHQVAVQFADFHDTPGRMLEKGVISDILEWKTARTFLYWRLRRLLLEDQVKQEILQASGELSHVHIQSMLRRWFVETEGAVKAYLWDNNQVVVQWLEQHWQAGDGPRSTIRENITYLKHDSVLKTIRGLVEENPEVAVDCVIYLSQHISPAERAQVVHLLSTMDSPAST
Experimental: ACC activity assay. Reactions were performed as previously described, with the exception of using 16.7 mM MgCl2 instead. 50 μg protein lysate was used for each reaction. Following addition of 1 N HCl to quench reactions and convert remaining [^14C]bicarbonate (American Radiolabeled Chemicals) to CO2, reactions were evaporated 2 hours at 600 and 15 min at 850 in a thermo shaker. ACC activity was calculated as incorporation of [^14C]bicarbonate into [^14C]malonyl CoA (the acid and heat stable product) as measured by scintillation counting.

MOLM14 cells [1] = assay: Cell growth (cell counting at 72 h) following PHD3 overexpression; type: cell-based, human; conditions: PHD3-overexpressing MOLM14; S2E 50 μM or metformin 1 mM
From the text: FIG. 12B, Growth curves of MOLM14 and THP1 cells stably overexpressing vector or PHD3 (n=3). FIG. 12C, ATP CellTiter-Glo analysis in MOLM14 and THP1 cells stably overexpressing vector or PHD3 (n=4). FIG. 12D, Colony formation assay with MOLM14 and THP1 cells stably overexpressing vector or PHD3. Colony forming units (CFU) were counted 8 days after plating MOLM14 and 20 days after plating THP1 (n=3). FIG. 12E, Representative images from colony formation assays with MOLM14 or THP1 cells stably overexpressing vector or PHD3. MOLM14 colonies were imaged on day 8 and THP1 colonies imaged on day 20 using an inverted microscope (Nikon Eclipse Ti-U) at 200× magnification and SPOT camera software 5.0. FIG. 12F, Immunoblot showing HA-PHD3 overexpression in K562 cells. FIG. 12G and FIG. 12H, Colony formation assay and representative images from K562 cells stably expressing PHD3 or vector. CFU were counted and imaged 10 days after plating (n=3). […] Following FACS to collect PI-negative cells, 8000 cells were plated per well of a 96-well plate, and cell number at 72 h was determined by cell counting (n=3). […] Colony formation was assessed in MOLM14 cells stably overexpressing vector or PHD3 in the presence or absence of metformin (Met, 1 mM). CFU were counted 8 days after plating (n=2). […]

MOLM14 cells [2] = assay: Colony formation assay (soft agar); type: cell-based, human; conditions: for colony formation (growth): PHD3-overexpressing MOLM14, metformin 1 mM, CFU counted 8 days after plating
From the text: FIG. 12B, Growth curves of MOLM14 and THP1 cells stably overexpressing vector or PHD3 (n=3). FIG. 12C, ATP CellTiter-Glo analysis in MOLM14 and THP1 cells stably overexpressing vector or PHD3 (n=4). FIG. 12D, Colony formation assay with MOLM14 and THP1 cells stably overexpressing vector or PHD3. Colony forming units (CFU) were counted 8 days after plating MOLM14 and 20 days after plating THP1 (n=3). FIG. 12E, Representative images from colony formation assays with MOLM14 or THP1 cells stably overexpressing vector or PHD3. MOLM14 colonies were imaged on day 8 and THP1 colonies imaged on day 20 using an inverted microscope (Nikon Eclipse Ti-U) at 200× magnification and SPOT camera software 5.0. FIG. 12F, Immunoblot showing HA-PHD3 overexpression in K562 cells. FIG. 12G and FIG. 12H, Colony formation assay and representative images from K562 cells stably expressing PHD3 or vector. CFU were counted and imaged 10 days after plating (n=3). […] Cells were treated with S2E (50 μM, Sigma), metformin (1 mM, Sigma) or vehicle following viral infection with PHD3 and throughout the duration of the experiment. Infected cells were selected with puromycin. Following FACS to collect PI-negative cells, 8000 cells were plated per well of a 96-well plate, and cell number at 72 h was determined by cell counting (n=3). […] Colony formation was assessed in MOLM14 cells stably overexpressing vector or PHD3 in the presence or absence of metformin (Met, 1 mM). CFU were counted 8 days after plating (n=2). FIG. 12K, qPCR analysis of PHD3 gene expression in primary human CD34+ cells from bone marrow filtrate of a healthy donor or AML patient samples (690a, 2093 and 2266). PPIA was used as a reference gene. FIG. 12L, ATP CellTiter-Glo analysis of cell viability in AML patient samples following stable overexpression of empty vector or PHD3 (n=4).

MOLM14 cells [3] = assay: Palmitate oxidation (FAO assay); type: cell-based, human; conditions: S2E 50 μM for 3 days; 3 h incubation with radiolabeled palmitate
Experimental: FIG. 15 includes 10 panels, FIGS. 15A-J, showing PHD3 modulation in leukemia cell lines. FIG. 15A, PHD3 expression in MOLM14 and THP1 cells following stable overexpression of vector or PHD3 (n=3). FIG. 15B, Palmitate oxidation in HepG2 cells treated with etomoxir during the 2 h FAO assay (100 μM, n=3). FIG. 15C and FIG. 15D, PHD3 expression and growth curves in K562 cells following stable overexpression of PHD3 or vector (n=3). FIG. 15E, Growth curves of K562 cells stably expressing shRNA against PHD3 or control (n=3). FIG. 15F, Colony formation assay with K562 cells stably expressing shRNA against PHD3 or non-silencing control. Colony forming units (CFU) were counted 10 days after plating (n=2). FIG. 15G, Representative images from colony formation assays with K562 cells stably expressing shRNA against PHD3 or non-silencing control. Colonies were imaged on day 10 using an inverted microscope (Nikon Eclipse Ti-U) at 200× magnification and SPOT camera software 5.0. […] MOLM14 cells were incubated with S2E (50 μM) or vehicle for 3 days. FAO was measured following 3 h incubation with radiolabeled palmitate in the presence of S2E or vehicle. FIG. 151, PHD3 expression in MOLM14 cells following stable overexpression of vector or PHD3 (n=3). […]

293T cells = assay: Palmitate oxidation (FAO assay); type: cell-based, human; conditions: low glucose, serum-free medium supplemented 5 mM for 6 h; PHD3-dependent
Experimental: FIG. 10C is a photograph of an immunoblot showing 293T cells stably expressing shRNA against PHD3 or non-targeting control were incubated 12 h in high or low nutrient media prior to analyzing ACC hydroxylation by IP and immunoblot. FIG. 10D is a photograph of an immunoblot showing ACC hydroxylation dynamically responds to cellular nutrient cues. WT immortalized MEFs were incubated in high (4.5 g/L glucose DMEM with serum) or low (1 g/L glucose DMEM without serum) nutrient medium for 6 h, or in low nutrient medium for 6 h followed by adding back high nutrient medium for 5 or 10 min. ACC was immunoprecipitated in lysis buffer containing the PHD inhibitor DMOG (1 mM) to minimize further hydroxylation in the lysis buffer. Hydroxylation was detected by immunoblot. FIG. 10E is a bar graph showing the impact of PHD3 knockdown on the ability of immortalized MEFs to modulate palmitate oxidation levels in response to low or high nutrient medium (n=3). […] FIG. 10G is a bar graph showing short, medium and long chain acylcarnitine levels as measured by metabolomics analysis of 293T cells grown in high nutrient medium following stable knockdown with shRNA against PHD3 or control. […]

CCOC(=O)[C@@]1(CCCCCCOc2ccc(Cl)cc2)CO1 [etomoxir]
cell viability (low-PHD3 leukemia cells): substantial cell death
sensitivity (viability) (KU812): sensitive
repression of FAO (palmitate oxidation) (HepG2 cells): over 50%

ARLELDDPSKVHPAE
hydroxylation by recombinant PHD3 (recombinant PHD3): not

COc1ccccc1OCC(O)CN1CCN(CC(=O)Nc2c(C)cccc2C)CC1 (centres unmarked) [ranolazine]
sensitivity (viability) (MEGO1): less sensitive
cell viability (low-PHD3 leukemia cells): drastically reduced cell viability
cell viability (K562 leukemia cells): viability was largely maintained

O=C(O)CC(O)(CC(=O)O)C(=O)O [citrate]
ACC activity (ACC2): activated

AGQVWFPDSAYKTAQ [peptide containing P2131]
hydroxylation by recombinant PHD3 (recombinant PHD3): not

CN(C)C(=N)N=C(N)N [metformin]
cell growth at 72 h (MOLM14 cells [1]): trend toward rescued growth
colony formation (growth) (MOLM14 cells [2]): improved growth; also recorded: partially rescues
colony formation (growth) (MOLM14 cells [2]; listed as Metformin): partially blocks the growth inhibitory effects
cell growth in soft agar (MOLM14 cells [2]; metformin on its own, 1 mM): impaired cell growth

CC(C)(C)c1ccc(N2C[C@@H](COc3ccc(C(=O)O)cc3)CC2=O)cc1 [S2E]
palmitate oxidation (FAO) (MOLM14 cells [3]): increases palmitate oxidation; also recorded: amplified FAO
cell growth at 72 h (MOLM14 cells [1]): restores cell growth; also recorded: rescued Molm14 cell growth

COC(=O)CCC(=O)C(=O)OC [dimethyl ketoglutarate]
palmitate oxidation (293T cells): repressed palmitate oxidation

ERIGFPLMIKASEGGGGK [ACC2 peptide containing P450]
hydroxylation by recombinant PHD3 (recombinant PHD3): shown to hydroxylate
